Results: patent US11952365B2, “Anti-viral compounds” (Aligos Therapeutics, Inc., priority 2020, dated 2024)
Like-named read-outs stand apart in the source and are kept apart here.

Key:
HRV3C = HRV3C (Human rhinovirus 14, UniProt P03303); experiment: HRV3C protease assay (duplex, SAMDI-MS); type: biochemical, HRV; conditions: 30 mins preincubation
Procedure, shortened: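 Enzyme preincubated 30 min with compound at ambient temperature, then both biotinylated peptide substrates added (duplex with 3CLpro); 30 min reaction quenched with 0.5% formic acid (final). Product read by SAMDI-MS as product/internal-standard AUC ratio; IC50 from four-parameter fit.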

[1] = system: human beta-coronavirus OC43; experiment: microbe, parasite or virus in culture; type: cell-based; conditions: Betacoronavirus 1, OC43, HeLa, 144 h
[2] = Cytotoxicity plates without OC43 virus (cell-titer-glo); type: cell-based, human; conditions: human; HeLa cells without OC43 virus, class symbols
Procedure, shortened: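 HeLa cells seeded overnight, then treated with serially diluted compounds in 2% FBS EMEM, uninfected, in parallel with the OC43 antiviral plates. Incubated 6 days at 33 °C; viability read by CellTiter-Glo luminescence.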

[3] = system: SARS-CoV-2-GHB-03021/2020; experiment: SARS-CoV-2 Infection Model in Huh7 Cells; type: cell-based; conditions: Severe acute respiratory syndrome coronavirus 2, Huh-7, 96 h, SARS-CoV-2, day 4 p.i., MTS
[4] = system: SARS-CoV-2-GHB-03021/2020; experiment: microbe, parasite or virus in culture; type: cell-based; conditions: Severe acute respiratory syndrome coronavirus 2, Vero C1008, 96 h; read-out: VeroE6 + CP (EC50)
human cathepsin L = target: T1, human cathepsin L (Homo sapiens, UniProt P07711); experiment: cathepsin L assay; type: biochemical; conditions: 10 pM human cathepsin L, Z-FR-AMC 2 μM, class symbols
T1 construct: purchased R&D Systems
Procedure, shortened: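 Human cathepsin L at 10 pM was preincubated 30 min with compound, then reaction started with Z-FR-AMC (2 μM final). Fluorescence (355/460 nm) read every 2 min for 30 min; IC50 from four-parameter curve fit.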

in vitro [5] = conditions: human
in vitro [6] = conditions: African green monkey, VeroE6 + CP (CC50), Vero E6-eGFP cells with CP-100356, absence of virus, MTS; numeric bounds
3CLpro = 3CLpro (Severe acute respiratory syndrome coronavirus 2, UniProt P0DTD1); experiment: SARS-CoV-2 3CLpro protease assay (duplex, SAMDI-MS); type: biochemical; set-up: For the duplex assay, 3CLpro and HRV3C was added; conditions: 3CLpro, 30 mins preincubation, class symbols; read-out: SARS-Cov-2 IC50
[7] = HRV3C, class symbols, read-out: HRV IC50
[8] = OC43 in HeLa cells, 6 days at 33° C., class symbols, read-out: EC50
[9] = HRV3C, bound, read-out: HRV IC50
[10] = OC43 in HeLa cells, 6 days at 33° C., bound, read-out: EC50

SMILES	IC50 (HRV3C; [7])	EC50 [1, 8]	CC50 at 6 days [2]	EC50 ([3]; class symbols)	EC50 [4]	IC50 (human cathepsin L)	CC50 (in vitro [5])	CC50 (in vitro [6])	IC50 (3CLpro)	IC50 (HRV3C; [9])	EC50 [1, 10]	EC50 ([3]; numeric bounds)	IC50 (HRV3C; HRV IC50, HRV3C, class symbols)	EC50 [1]
COc1cccc2[nH]c(C(=O)N3CC4(CC4)C[C@H]3C(=O)N[C@@H](C[C@@H]3CCNC3=O)C(=O)CO)cc12 [Compound 31, (6S)—N-[(2S)-4-hydroxy-3-oxo-1-[(3S)-2-oxopyrrolidin-3-yl]butan-2-yl]-5-(4-methoxy-1H-indole-2-carbonyl)-5-azaspiro[2.4]heptane-6-carboxamide]	20 to 100 µM	0.1 to 1 µM	> 10 µM	10 to 100 µM	1 to 10 µM	≥ 10 µM	> 100 µM	> 100 µM	< 0.02 µM					
O=C1NCC[C@H]1C[C@H](NC(=O)[C@@H]1[C@H]2CCC[C@H]2CN1C(=O)c1cc2c(Cl)ccc(-c3ccccc3)c2[nH]1)C(=O)CO [Compound 168, (1S,3aR,6aS)-2-(4-chloro-7-phenyl-1H-indole-2-carbonyl)-N-[(2S)-4-hydroxy-3-oxo-1-[(3S)-2-oxopyrrolidin-3-yl]butan-2-yl]-hexahydro-1H-cyclopenta[c]pyrrole-1-carboxamide]		1 to 10 µM	> 10 µM	1 to 10 µM	1 to 10 µM	≥ 10 µM	> 10 µM	> 50 µM	0.2 to 2 µM	> 10 µM				
COc1cccc2[nH]c(C(=O)N3C[C@]4(C[C@H]3C(=O)N[C@@H](C[C@@H]3CCCNC3=O)C(=O)COCc3ccccc3)CC4(F)F)cc12 [Compound 47A, (3S,6S)—N-[(2S)-4-(benzyloxy)-3-oxo-1-[(3S)-2-oxopiperidin-3-yl]butan-2-yl]-1,1-difluoro-5-(4-methoxy-1H-indole-2-carbonyl)-5-azaspiro[2.4]heptane-6-carboxamide]	2 to 20 µM	< 0.1 µM	> 10 µM	1 to 10 µM	1 to 10 µM	≥ 10 µM	> 10 µM	> 100 µM	0.02 to 0.2 µM					
O=C(NCc1ccccc1)C(=O)[C@H](C[C@@H]1CCNC1=O)NC(=O)[C@@H]1[C@H]2CCC[C@H]2CN1C(=O)c1nc2ccccc2[nH]1 [Compound 35]	2 to 20 µM	1 to 10 µM	> 10 µM	10 to 100 µM	10 to 100 µM	≥ 10 µM	> 100 µM	> 100 µM	0.02 to 0.2 µM					
O=C(NC1CC1)C(=O)[C@H](C[C@@H]1CCNC1=O)NC(=O)[C@@H]1CC2(CCN1C(=O)c1cc3ccccc3s1)CC2 [Compound 165]	0.2 to 2 µM	0.1 to 1 µM	> 10 µM	< 1 µM	< 1 µM	1 to 10 µM	> 10 µM	> 50 µM	0.02 to 0.2 µM					
COc1ccc2[nH]c(C(=O)N3C[C@@H]4CCC[C@@H]4[C@H]3C(=O)N[C@@H](C[C@@H]3CCNC3=O)C(=O)CO)cc2c1OC [Compound 81, (1S,3aR,6aS)-2-(4,5-dimethoxy-1H-indole-2-carbonyl)-N-[(2S)-4-hydroxy-3-oxo-1-[(3S)-2-oxopyrrolidin-3-yl]butan-2-yl]-hexahydro-1H-cyclopenta[c]pyrrole-1-carboxamide]	2 to 20 µM	1 to 10 µM	> 10 µM	10 to 100 µM	1 to 10 µM	≥ 10 µM	> 50 µM	> 50 µM	0.02 to 0.2 µM					
O=C(NC1CC1)C(=O)[C@H](C[C@@H]1CCNC1=O)NC(=O)[C@@H]1[C@H]2CCC[C@H]2CN1C(=O)c1cc2c(Cl)cc(Cl)cc2[nH]1 [Compound 148]	0.2 to 2 µM	0.1 to 1 µM	> 10 µM	< 1 µM	< 1 µM	≥ 10 µM	> 10 µM	> 50 µM	0.02 to 0.2 µM					
CC(F)(F)c1cccc2[nH]c(C(=O)N3C[C@@H]4CCC[C@@H]4[C@H]3C(=O)N[C@@H](C[C@@H]3CCNC3=O)C(=O)CO)cc12 [Compound 152, (1S,3aR,6aS)-2-[4-(1,1-difluoroethyl)-1H-indole-2-carbonyl]-N-[(2S)-4-hydroxy-3-oxo-1-[(3S)-2-oxopyrrolidin-3-yl]butan-2-yl]-hexahydro-1H-cyclopenta[c]pyrrole-1-carboxamide]		1 to 10 µM	> 10 µM	10 to 100 µM	10 to 100 µM	≥ 10 µM	> 50 µM	> 50 µM	0.02 to 0.2 µM	> 10 µM				
CC(=O)c1c[nH]c(C(=O)N2C[C@@H]3CCC[C@@H]3[C@H]2C(=O)N[C@@H](C[C@@H]2CCNC2=O)C(=O)CO)c1 [Compound 86, (1S,3aR,6aS)-2-(4-acetyl-1H-pyrrole-2-carbonyl)-N-[(2S)-4-hydroxy-3-oxo-1-[(3S)-2-oxopyrrolidin-3-yl]butan-2-yl]-hexahydro-1H-cyclopenta[c]pyrrole-1-carboxamide]	2 to 20 µM	1 to 10 µM	> 10 µM	10 to 100 µM	10 to 100 µM	≥ 10 µM	> 50 µM	> 50 µM	0.02 to 0.2 µM					
O=C1NCC[C@H]1C[C@H](NC(=O)[C@@H]1[C@H]2CCC[C@H]2CN1C(=O)c1cc2c(Cl)cc(F)c(Cl)c2[nH]1)C(=O)CO [Compound 162, (1S,3aR,6aS)-2-(4,7-dichloro-6-fluoro-1H-indole-2-carbonyl)-N-[(2S)-4-hydroxy-3-oxo-1-[(3S)-2-oxopyrrolidin-3-yl]butan-2-yl]-hexahydro-1H-cyclopenta[c]pyrrole-1-carboxamide]	2 to 20 µM	< 0.1 µM	> 10 µM	< 1 µM	< 1 µM	≥ 10 µM	> 50 µM	> 50 µM	< 0.02 µM					
O=C1NCC[C@H]1C[C@H](NC(=O)[C@@H]1[C@H]2CCC[C@H]2CN1C(=O)c1cc2c([nH]1)CCS2(=O)=O)C(=O)CO [Compound 159, (1S,3aR,6aS)-2-{1,1-dioxo-2H,3H,4H-1λ6-thieno[3,2-b]pyrrole-5-carbonyl}-N-[(2S)-4-hydroxy-3-oxo-1-[(3S)-2-oxopyrrolidin-3-yl]butan-2-yl]-hexahydro-1H-cyclopenta[c]pyrrole-1-carboxamide]			> 10 µM		10 to 100 µM	≥ 10 µM	> 50 µM	> 50 µM	0.02 to 0.2 µM	> 10 µM	> 10 µM	> 10 µM		
CC(C)[C@@H]1C[C@@H](C(=O)NC(C[C@@H]2CCNC2=O)C(=O)C(=O)NCc2ccccc2)N(C(=O)c2cc3ccccc3[nH]2)C1 (stereo partly drawn) [Compound 48, N-benzyl-3-{[(2S,4S)-1-(1H-indole-2-carbonyl)-4-isopropylpyrrolidin-2-yl]formamido}-2-oxo-4-[(3S)-2-oxopyrrolidin-3-yl]butanamide]	2 to 20 µM	0.1 to 1 µM	> 10 µM	1 to 10 µM	1 to 10 µM	0.1 to 1 µM	> 10 µM	> 100 µM	0.2 to 2 µM					
O=C1NCC[C@H]1C[C@H](NC(=O)[C@@H]1[C@H]2CCC[C@H]2CN1C(=O)c1cc2ccsc2[nH]1)C(=O)CO [Compound 80, (1S,3aR,6aS)—N-[(2S)-4-hydroxy-3-oxo-1-[(3S)-2-oxopyrrolidin-3-yl]butan-2-yl]-2-{6H-thieno[2,3-b]pyrrole-5-carbonyl}-hexahydro-1H-cyclopenta[c]pyrrole-1-carboxamide]			> 10 µM	1 to 10 µM	1 to 10 µM	≥ 10 µM	> 50 µM	> 50 µM	0.02 to 0.2 µM				2 to 20 µM	1 to 10 µM
COc1cccc2[nH]c(C(=O)N3C[C@@H]4CCC[C@@H]4[C@H]3C(=O)N[C@@H](C[C@@H]3CCNC3=O)C(=O)C(=O)NC3CCOCC3)cc12 [Compound 104]	0.2 to 2 µM		> 10 µM	10 to 100 µM	10 to 100 µM	≥ 10 µM	> 100 µM	> 100 µM	0.2 to 2 µM		> 10 µM			
